From US9274101B2 (BIOLOG, Inc., priority 2001, dated 2016)

Columns and labels:
HL-60 cells = assay: HL-60 responses to selected compounds at a range of concentrations; assay type: cell-based, human; conditions: for activity at 30 µM / activity at 100 µM / activity at 330 µM / activity at 1000 µM / activity at 3300 µM / activity at 10000 µM / activity at 15000 µM / activity at 20000 µM: Homo sapiens, HL-60, read-out: HL-60 Cell Responses to Selected Compounds from PM1 and PM2; for activity at 30 µM: Conc. 0.03 mM; for activity at 100 µM: Conc. 0.10 mM; for activity at 330 µM: Conc. 0.33 mM; for activity at 1000 µM: Conc. 1.00 mM; for activity at 3300 µM: Conc. 3.3 mM; for activity at 10000 µM: Conc. 10 mM; for activity at 15000 µM: Conc. 15 mM; for activity at 20000 µM: Conc. 20 mM
Method: In this Example, methods for testing unattached cells for their ability to use various concentrations of selected carbon sources are described. The carbon sources used in this Example were identified by the methods disclosed in Example 27. Similarly, HL-60 cells were cultured as described in Example 27.
After washing, HL-60 cells were resuspended in DME-R. An aliquot of the cell suspension was counted by trypan blue exclusion and the cell density was adjusted to 6.67×10^5/mL. Fifty μL of DME-R were added to each well of the appropriate number of half area, 96-well plates, followed by 23 μL of the appropriate dilution of each test energy source. Stocks of 133 mM of each test chemical were prepared in tissue culture grade water, sterile filtered, and dilutions were prepared in a master plate so that, upon dilution in a total volume of 150 μL, the final concentrations would be 0.033 to 20 mM. Negative control wells received 23 μL of tissue culture grade water. The cells were plated at a volume of 75 μL/well, giving a final cell density of 5×10^4/well. For each plate containing energy sources and cells, a second, control plate containing only energy sources was prepared. Plates were incubated at 5% CO2, 90-100% humidity, and 37° C. for 24 hours prior to addition of the MTS/MPMS colorometric reagent (7.5 μL/well). The color formed in each well after an additional 24 hour incubation period, was measured on a plate reader at 490 nm with a reference wavelength of 650 nm. OD values from the control plate were subtracted from the OD values obtained with cells prior to normalizing the data to % negative control (cells without added energy source).

[1] = tested on: DMSO-differentiated HL-60 cells; assay: Energy use by DMSO-differentiated HL-60 cells; assay type: cell-based, human; conditions: for activity at 30 µM / activity at 100 µM / activity at 330 µM / activity at 1000 µM / activity at 3300 µM / activity at 10000 µM / activity at 15000 µM / activity at 20000 µM: Homo sapiens, HL-60, 24 h, read-out: Energy Use by DMSO-Differentiated HL-60 Cells; for activity at 30 µM: Conc. 0.03 mM; for activity at 100 µM: Conc. 0.10 mM; for activity at 330 µM: Conc. 0.33 mM; for activity at 1000 µM: Conc. 1.00 mM; for activity at 3300 µM: Conc. 3.3 mM; for activity at 10000 µM: Conc. 10 mM; for activity at 15000 µM: Conc. 15 mM; for activity at 20000 µM: Conc. 20 mM
Method: In this Example, methods for testing in vitro-differentiated cells for their ability to use multiple energy sources are described. Prior to differentiation, HL-60 cells were cultured as described in Example 27. DMSO-induced differentiation (Odani et al., Res. Commun. Mol. Pathol. Pharmacol. 108:381-391 [2000]; and Yamaguchi et al., Biol. Pharm. Bull. 20:943-947 [1997]) was accomplished by incubation of the cells in the presence of 1.25% DMSO for 3 days.
After washing, HL-60 cells were resuspended in DME-R. An aliquot of the cell suspension was counted by trypan blue exclusion and the cell density was adjusted to 6.67×10^5/mL. Fifty μL of DME-R were added to each well of the appropriate number of half area, 96-well plates, followed by 25 μL of the appropriate dilution of each test energy source. Stocks of 133 mM of each test chemical were prepared in tissue culture grade water, sterile filtered, and dilutions were prepared in a master plate so that, upon dilution into a half-area 96-well microtiter plate to a total well volume of 150 μL, the final concentrations would be 0.033 to 20 mM. Negative control wells received 25 μL of tissue culture grade water. The cells were plated at a volume of 75 μL/well, giving a final cell density of 5×10^4/well. For each plate containing energy sources and cells, a second, control plate containing only energy sources was prepared with the same total volume of liquid (148 μL/well). Plates were incubated at 5% CO2, 90-100% humidity, and 37° C. for 24 hours prior to addition of the MTS/MPMS calorimetric reagent (7.5 μL/well). The color formed in each well 24 hours after addition of the colorimetric reagent, was measured with a plate reader at 490 nm with a reference wavelength of 650 nm. OD values from the control plate were subtracted from the OD values obtained with cells prior to normalizing the data to % negative control (cells without added energy source).

SMILES | response in words (HL-60 cells; 0.033 to 20 mM) | activity at 30 µM (HL-60 cells) | activity at 100 µM (HL-60 cells) | activity at 330 µM (HL-60 cells) | activity at 1000 µM (HL-60 cells) | activity at 3300 µM (HL-60 cells) | activity at 10000 µM (HL-60 cells) | activity at 15000 µM (HL-60 cells) | activity at 20000 µM (HL-60 cells) | activity at 30 µM [1] | activity at 100 µM [1] | activity at 330 µM [1] | activity at 1000 µM [1] | activity at 3300 µM [1] | activity at 10000 µM [1] | activity at 15000 µM [1] | activity at 20000 µM [1] | energy source use in words ([1]; DMSO-differentiated HL-60 cells)
NC(=O)CC[C@H](N)C(=O)O [L-glutamine] | strongly utilized, even at very low concentrations | 147% | 161% | 162% | 168% | 161% | 151% | 127% | 92% | 110% | 149% | 154% | 156% | 172% | 157% | 121% | 109% | –
N[C@@H](Cc1c[nH]cn1)C(=O)O [L-histidine] | – | 123% | 121% | 128% | 135% | 146% | 120% | 123% | 95% | 119% | 123% | 128% | 157% | 172% | 171% | 140% | 114% | –
CC(C)[C@H](N)C(=O)O [L-valine] | – | 117% | 137% | 134% | 135% | 133% | 125% | 122% | 112% | 81.1% | 89.4% | 85.2% | 86.7% | 81.2% | 89.3% | 81.4% | 88.6% | –
Cc1cn([C@H]2C[C@H](O)[C@@H](CO)O2)c(=O)[nH]c1=O [Thymidine] | – | 121% | 125% | 128% | 134% | 129% | 106% | 91.5% | 68.5% | 96% | 112% | 143% | 165% | 173% | 160% | 160% | 103% | able to utilize thymidine at concentrations of 0.1-15 mM
